Laboratory results taken from patent publication US20240285552A1 (priority 2020, published 2024).
Where a name gives a salt, the structure may show the parent alone. Read-outs that look alike come from different tables or passages of the source.

Tests used:
[1] = system: B.1.617.2 Delta Variant of SARS-CoV-2; experiment: microbe, parasite or virus in culture; format: cell-based; conditions: for IC50: read-out: IC 50 against B.1.617.2 Delta Variant Infection-Induced CPE
[2] = system: SARS-CoV-2 spike (B.1.617.2 Delta Variant) pseudotyped lentivirus; experiment: microbe, parasite or virus in culture; format: cell-based; conditions: for inhibition at 10 µM: HEK293, 10 μM
[3] = Severe acute respiratory syndrome coronavirus 2, Vero C1008, Vero E6
[4] = Lentivirus, read-out: Percent (%) Inhibition of Pseudo virus Entry in HEK293 Kidney Cells, B.1.617.2 Delta Variant

Structure (SMILES): CCOC(=O)[C@H]1O[C@@H]1C(=O)N[C@@H](CC(C)C)C(=O)NCCC(C)C [Aloxistatin]
- Conc. at Max. % Inhibition [1]: 15 µM
- Max. Inhibition [1]: 85.17%
- IC50 [1, 3]: 9.84 µM
- IC50 ([1]; Vero E6): 9.82 µM

Structure (SMILES): CC(C)(C)[C@H](NC(=O)C(F)(F)F)C(=O)N1C[C@H]2[C@@H]([C@H]1C(=O)N[C@H](C#N)C[C@@H]1CCNC1=O)C2(C)C [PF-07321332]
- Conc. at Max. % Inhibition [1]: 10 µM
- Max. Inhibition [1]: 96.28%
- IC50 ([1]; Vero E6): 1.98 µM

Structure (SMILES): CCN(CC)CCCC(C)Nc1ccnc2cc(Cl)ccc12 (stereo not drawn) [Chloroquine]
- Conc. at Max. % Inhibition [1]: 15 µM
- IC50 [1, 3]: 8.3 µM

Structure (SMILES): CCC(CC)COC(=O)[C@H](C)N[P@](=O)(OC[C@H]1O[C@@](C#N)(c2ccc3c(N)ncnn23)[C@H](O)[C@@H]1O)Oc1ccccc1 [Remdesivir]
- Conc. at Max. % Inhibition [1]: 15 µM
- Max. Inhibition [1]: 104.26%
- IC50 [1, 3]: 8.24 µM

Structure (SMILES): Nc1c(Br)cc(Br)cc1CN[C@H]1CC[C@H](O)CC1 [AMB, 4-[(2-amino-3,5-dibromophenyl)methylamino]cyclohexan-1-ol; hydrochloride]
- Percent (%) Inhibition of Pseudo virus Entry in HEK293 Kidney Cells, B.1.617.2 Delta Variant ([2]; 50 μM, hydrochloride): 48%
- Percent (%) Inhibition of Pseudo virus Entry in HEK293 Kidney Cells, B.1.617.2 Delta Variant ([2]; 100 μM, hydrochloride): 95%
- inhibition at 10 µM [2, 4]: 6%
- inhibition at 25 µM ([2]; Lentivirus, HEK293, 25 μM, read-out: Percent (%) Inhibition of Pseudo virus Entry in HEK293 Kidney Cells, B.1.617.2 Delta Variant): 19%
- inhibition at 50 µM ([2]; Lentivirus, HEK293, 50 μM, read-out: Percent (%) Inhibition of Pseudo virus Entry in HEK293 Kidney Cells, B.1.617.2 Delta Variant): 50%
- inhibition at 100 µM ([2]; Lentivirus, HEK293, 100 μM, read-out: Percent (%) Inhibition of Pseudo virus Entry in HEK293 Kidney Cells, B.1.617.2 Delta Variant): 100%
- Conc. at Max. % Inhibition [1]: 150 µM
- Max. Inhibition [1]: 88.38%
- IC50 [1, 3]: ~98 µM
- IC50 ([1]; Vero E6, hydrochloride): 98.2 µM

Structure (SMILES): CN(Cc1cc(Br)cc(Br)c1N)C1CCCCC1 [BHH, Bromhexine hydrochloride]
- Percent (%) Inhibition of Pseudo virus Entry in HEK293 Kidney Cells, B.1.617.2 Delta Variant ([2]; 100 μM): blocked viral entry completely
- inhibition at 10 µM [2, 4]: ~10%
- Conc. at Max. % Inhibition [1]: 18.75 µM
- Max. Inhibition [1]: 74.57%
- IC50 [1, 3]: 17.7 µM
